Data: a flash point compilation (Sun et al. 2020)

In the case of `C/C=C\C(C)C` [cis-4-methyl-2-pentene], the flash point is reported as -33 °C.
`C[C@@H]1CCC[C@@H]1C` [cis-1,2-dimethylcyclopentane] gave a flash point of -4 °C.
Work on `CCCCC#N` [pentanenitrile] yielded a flash point of 32 °C.
With `C=CCCCCC=C` [1,7-octadiene] the flash point was 5 °C.
In the case of `C=CCOC(=O)C(=C)C` [allylmethacrylate], the flash point is reported as 37 °C.
`CCCCOC(=O)c1ccccc1` [butylbenzoate] showed a flash point of 107 °C.
`CCCC(CC)CCC` [4-ethylheptane] showed a flash point of 15 °C.
For `C=CC(=O)OCCCC` [butylacrylate], the flash point was 37 °C.
In the case of `CC(C)c1ccc(C(C)C)cc1` [1,4-diisopropylbenzene], the flash point is reported as 76 °C.
Work on `O=[N+]([O-])C1CCCCC1` [nitrocyclohexane] yielded a flash point of 81 °C.
`CC/C=C/CCC` [trans-3-heptene] showed a flash point of -7 °C.
`CC(C)CCOC=O` [isopentylformate] showed a flash point of 22 °C.
Work on `CCCCCCC=O` [heptanal] yielded a flash point of 40 °C.
`CCCCCCI` [1-iodohexane] showed a flash point of 61 °C.
Molecule `CCC=O` [propanal] has a flash point of -27 °C.
Molecule `CCCCCCCCCN` [nonylamine] has a flash point of 74 °C.
With `CCc1cccc(C)c1C` [1-ethyl-2,3-dimethylbenzene] the flash point was 65 °C.
`COC(CBr)OC` [2-bromo-1,1-dimethoxyethane] showed a flash point of 51 °C.
`C=CCOC(=O)CC` [allylpropanoate] gave a flash point of 25 °C.
Molecule `CCCC(C)C` [2-methylpentane] has a flash point of -32 °C.
`CC(C)CCOCCC(C)C` [diisopentylether] gave a flash point of 46 °C.
With `CSC(C)(C)C` [tert-butylmethylsulfide] the flash point was -3 °C.
`CCc1ccc(Cl)cc1` [1-chloro-4-ethylbenzene] gave a flash point of 62 °C.
Work on `CCCCCCCCCOC(C)=O` [nonylacetate] yielded a flash point of 91 °C.
`C=CC(=O)OC1CCCCC1` [cyclohexylacrylate] showed a flash point of 68 °C.
For `CCC(=O)C(C)C` [2-methyl-3-pentanone], the flash point was 16 °C.
With `C=CCOCCC` [allylpropylether] the flash point was -5 °C.
In the case of `CCCCC(C)CCC` (stereo not given) [4-methyloctane], the flash point is reported as 22 °C.
Work on `C#CCCCCCCCCCC` [1-dodecyne] yielded a flash point of 79 °C.
Molecule `C=CCCCC=C` [1,6-heptadiene] has a flash point of -10 °C.
Molecule `C=C(C)CCCCC` [2-methyl-1-heptene] has a flash point of 10 °C.
`CCC(C)CC(C)(C)C` (stereo not given) [2,2,4-trimethylhexane] showed a flash point of 13 °C.
Molecule `CCC(C)c1ccccc1N` (stereo not given) [2-sec-butylaniline] has a flash point of 102 °C.
For `C=CCCC(C)C` [5-methyl-1-hexene], the flash point was -10 °C.
For `CCCCCCCC(=O)CCC` [4-undecanone], the flash point was 92 °C.
Work on `CC(C)c1ccccc1` [cumene] yielded a flash point of 31 °C.
`C=COC(C)(C)C` [tert-butylvinylether] gave a flash point of -17 °C.
For `CCOCc1ccccc1` [benzylethylether], the flash point was 59 °C.
In the case of `CCC(C)(C)C(C)C(C)C` (stereo not given) [2,3,4,4-tetramethylhexane], the flash point is reported as 31 °C.
`CCc1ccc(N)cc1` [4-ethylaniline] showed a flash point of 97 °C.
With `CCC(Cl)Cl` [1,1-dichloropropane] the flash point was 7 °C.
Work on `C=C(C)C(=O)OCCCC` [butylmethacrylate] yielded a flash point of 49 °C.
Molecule `C=CC1(C)CCC(=O)O1` (stereo not given) [4-methyl-4-vinylbutyrolactone] has a flash point of 75 °C.
In the case of `CCCCNCCCC` [dibutylamine], the flash point is reported as 47 °C.
`CC(C)(C)C(=O)OC(=O)C(C)(C)C` [pivalicanhydride] showed a flash point of 63 °C.
In the case of `CCCC(C)S` (stereo not given) [2-pentanethiol], the flash point is reported as 15 °C.
In the case of `CC(C)(C)Cc1ccccc1` [neopentylbenzene], the flash point is reported as 50 °C.
In the case of `CCC(C)N` (stereo not given) [sec-butylamine], the flash point is reported as -19 °C.
`CCCC1CCC(=O)CC1` [4-propylcyclohexanone] gave a flash point of 86 °C.
Work on `CC/C=C\CCCC` [cis-3-octene] yielded a flash point of 14 °C.
`Oc1ccccc1Cl` [2-chlorophenol] gave a flash point of 72 °C.
In the case of `CCCCCCC(=O)CCC` [4-decanone], the flash point is reported as 71 °C.
Molecule `CSCCC=O` [4-thiapentanal] has a flash point of 61 °C.
`C1=CCCC=C1` [1,3-cyclohexadiene] gave a flash point of -16 °C.
Work on `CCOC(=O)c1ccccc1C(=O)OCC` [diethylphthalate] yielded a flash point of 160 °C.
Molecule `CSCCl` [chloromethylmethylsulfide] has a flash point of 17 °C.
Molecule `CCCCC(C)C(C)C` (stereo not given) [2,3-dimethylheptane] has a flash point of 15 °C.
In the case of `CCCCCCCCCCC=O` [undecanal], the flash point is reported as 95 °C.
In the case of `CCCCC(C)CCCC` [5-methylnonane], the flash point is reported as 37 °C.
`CCC(=O)OCCc1ccccc1` [2-phenylethylpropionate] gave a flash point of 113 °C.
In the case of `CC(C)CC(=O)O` [3-methylbutanoicacid], the flash point is reported as 74 °C.
With `CCCCCCCCC(=O)CC` [3-undecanone] the flash point was 89 °C.
For `CCCCCCCCCCCCOC(C)=O` [dodecylacetate], the flash point was 120 °C.
`C=Cc1cccc(C)c1` [3-methylstyrene] gave a flash point of 48 °C.
With `CCc1ccccc1Br` [1-bromo-2-ethylbenzene] the flash point was 79 °C.
`CCC(C)CCC(=O)O` (stereo not given) [4-methylhexanoicacid] showed a flash point of 103 °C.
With `CCC(CC)C(=O)O` [2-ethylbutanoicacid] the flash point was 87 °C.
`CC(O)CCO` (stereo not given) [1,3-butanediol] showed a flash point of 109 °C.
`C=CC(C)CCC` (stereo not given) [3-methyl-1-hexene] gave a flash point of -18 °C.
`CC(=O)N(C)C` [N,N-dimethylacetamide] showed a flash point of 66 °C.
For `O=C1CCCC1` [cyclopentanone], the flash point was 26 °C.
`CC(C)(C)C#N` [2,2-dimethylpropanenitrile] showed a flash point of 4 °C.
For `CCCCCCCC(C)O` (stereo not given) [2-nonanol], the flash point was 82 °C.
With `CC#CCCCCCC` [2-nonyne] the flash point was 39 °C.
For `CCC(C)I` (stereo not given) [2-iodobutane], the flash point was 24 °C.
With `CC(C)C(C)O` (stereo not given) [3-methyl-2-butanol] the flash point was 27 °C.
In the case of `Clc1ccccn1` [2-chloropyridine], the flash point is reported as 64 °C.
With `CCC(C)C(C)(C)C` (stereo not given) [2,2,3-trimethylpentane] the flash point was -3 °C.
Work on `CC(C)Cl` [2-chloropropane] yielded a flash point of -32 °C.
With `COC(=O)C(C)C` [methyl2-methylpropanoate] the flash point was 3 °C.
Work on `CCC1CCCCC1` [ethylcyclohexane] yielded a flash point of 18 °C.
In the case of `CCCC(C)O` (stereo not given) [2-pentanol], the flash point is reported as 34 °C.
Work on `C=CC(=O)OC` [methylacrylate] yielded a flash point of -3 °C.
For `C#CCO` [2-propyn-1-ol], the flash point was 36 °C.
With `Ic1ccccc1` [iodobenzene] the flash point was 74 °C.
`CCCCCC(=O)OC` [methylhexanoate] gave a flash point of 41 °C.
With `CC(C)C1CCCC1` [isopropylcyclopentane] the flash point was 14 °C.
For `CCCCCOC(=O)c1ccccc1` [pentylbenzoate], the flash point was 120 °C.
Molecule `C=C(C)C=O` [2-methyl-2-propenal] has a flash point of -15 °C.
`CC(=O)OC(C)(C)C` [tert-butylacetate] showed a flash point of 4 °C.
Molecule `CC(C)=C(C)C` [2,3-dimethyl-2-butene] has a flash point of -20 °C.
`CCC(CC)C(C)C` [3-ethyl-2-methylpentane] showed a flash point of 3 °C.
`CC(C)C(C)(C)C(C)C` [2,3,3,4-tetramethylpentane] showed a flash point of 11 °C.
With `CCCCCCCS` [1-heptanethiol] the flash point was 46 °C.
Work on `CCc1cccc(C(C)C)c1` [1-ethyl-3-isopropylbenzene] yielded a flash point of 63 °C.
With `CC(=O)C1CC1` [cyclopropylmethylketone] the flash point was 13 °C.
In the case of `C=CCC(C)CC` (stereo not given) [4-methyl-1-hexene], the flash point is reported as -15 °C.
Work on `Cc1ccco1` [2-methylfuran] yielded a flash point of -26 °C.
With `CC(C)c1cccc(O)c1` [3-isopropylphenol] the flash point was 104 °C.
In the case of `CCCCCCCCC#N` [nonanenitrile], the flash point is reported as 82 °C.
With `CC(C)C(C)S` (stereo not given) [3-methyl-2-butanethiol] the flash point was 9 °C.
With `c1ccc2c(c1)CCCC2` [1,2,3,4-tetrahydronaphthalene] the flash point was 71 °C.
With `COc1ccccc1C` [2-methylanisole] the flash point was 51 °C.
`CC(C)(C)c1ccccc1` [tert-butylbenzene] gave a flash point of 44 °C.
`C1COCO1` [1,3-dioxolane] showed a flash point of -6 °C.
Molecule `CCCC(I)CC` (stereo not given) [3-iodohexane] has a flash point of 55 °C.
For `CCC(C)(C)CC(C)(C)C` [2,2,4,4-tetramethylhexane], the flash point was 31 °C.
For `COc1ccccc1OC` [1,2-dimethoxybenzene], the flash point was 87 °C.
Work on `CCCCCCOC=O` [hexylformate] yielded a flash point of 44 °C.
Work on `CCNC1CCCCC1` [N-ethylcyclohexanamine] yielded a flash point of 45 °C.
`C=CC(=C)Cl` [2-chloro-1,3-butadiene] gave a flash point of -20 °C.
`CC(C)=CCCC(C)CC=O` (stereo not given) [3,7-dimethyl-6-octenal] gave a flash point of 78 °C.
Molecule `CC(C)COC(=O)C(C)C` [isobutyl2-methylpropanoate] has a flash point of 38 °C.
`CCCSSCCC` [dipropyldisulfide] gave a flash point of 66 °C.
For `CC(C)(N)CO` [2-amino-2-methyl-1-propanol], the flash point was 68 °C.
With `C1CC[C@H]2CCCC[C@@H]2C1` [trans-decalin] the flash point was 53 °C.
In the case of `CN(C)CCCN` [N,N-dimethyl-1,3-propanediamine], the flash point is reported as 32 °C.
Work on `COC1CCCCC1` [cyclohexylmethylether] yielded a flash point of 21 °C.
For `CCC(Br)CC` [3-bromopentane], the flash point was 19 °C.
`CCC#CCCCCC` [3-nonyne] showed a flash point of 38 °C.
Molecule `CCCCCCCCCCCS` [1-undecanethiol] has a flash point of 109 °C.
In the case of `CCCOC(=O)CC` [propylpropanoate], the flash point is reported as 22 °C.
For `c1ccoc1` [furan], the flash point was -36 °C.
In the case of `CCCCCC(O)CC` (stereo not given) [3-octanol], the flash point is reported as 68 °C.
Work on `CCCCCCC(C)(C)C` [2,2-dimethyloctane] yielded a flash point of 31 °C.
